Results: PubChem BioAssay (NCI)
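Method: 48-hour compound exposure of cells in 96-well plates, five concentrations, linear interpolation of endpoints. GI50 is the concentration that inhibits growth by half. Definition used: TGI = concentration required for complete inhibition of growth.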

Tests used:
Test in all cases: NCI tumour cell line growth inhibition, 48 h
HCC-2998 colon = test system: HCC-2998 colon
SK-MEL-28 melanoma = test system: SK-MEL-28 melanoma
HT29 colon = test system: HT29 colon
MOLT-4 leukemia = test system: MOLT-4 leukemia
786-0 renal = test system: 786-0 renal
A498 renal = test system: A498 renal
K-562 leukemia = test system: K-562 leukemia
PC-3 prostate = test system: PC-3 prostate
MDA-N = test system: MDA-N

| Compound | TGI (HCC-2998 colon) | TGI (SK-MEL-28 melanoma) | TGI (HT29 colon) | TGI (MOLT-4 leukemia) | TGI (786-0 renal) | TGI (A498 renal) | TGI (K-562 leukemia) | TGI (PC-3 prostate) | TGI (MDA-N) | GI50 (HT29 colon) | GI50 (MOLT-4 leukemia) | GI50 (A498 renal) | GI50 (K-562 leukemia) | GI50 (PC-3 prostate) | GI50 (SK-MEL-28 melanoma) |
| --- | --- | --- | --- | --- | --- | --- | --- | --- | --- | --- | --- | --- | --- | --- | --- |
| NC1=CN2c3ccccc3N(CC(=O)O)C2C=C1 (stereo unspecified) | > 100 µM | > 100 µM | > 100 µM | > 100 µM | > 100 µM | > 100 µM | > 100 µM | > 100 µM |  |  |  |  |  |  |  |
| O=CC12C3CCC1C2C(=O)C3 (stereo unspecified) | > 100 µM | > 100 µM | > 100 µM | > 100 µM | > 100 µM |  | > 100 µM | > 100 µM | > 100 µM |  |  |  |  |  |  |
| O=C1CC(c2cccc(Br)c2)n2cccc21 (stereo unspecified) | > 100 µM | > 100 µM | > 100 µM | > 100 µM | > 100 µM | > 100 µM | > 100 µM | > 100 µM |  |  |  |  |  |  |  |
| O=C(NCc1cccc2ccccc12)N/N=C\c1ccc(Cl)cc1 | > 100 µM | > 100 µM | > 100 µM | > 100 µM | > 100 µM |  | > 100 µM | > 100 µM | 75.7 µM |  |  |  |  |  |  |
| CC1=NN(c2nc(N)nc(CC#N)n2)C(C)(C)C1 | > 100 µM | > 100 µM | > 100 µM | > 100 µM | > 100 µM | > 100 µM | > 100 µM | > 100 µM |  |  |  |  |  |  |  |
| Cc1ccc(N(CC(=O)Nc2ccc(S(=O)(=O)N3CCC(N4CCCC4)CC3)cc2)S(=O)(=O)c2ccc(Cl)cc2)cc1 |  |  | 3.68 µM | 4.98 µM |  | 2.84 µM | 2.75 µM | 4.05 µM |  | 1870 nM | 1870 nM | 1440 nM | 566 nM | 1880 nM |  |
| S=C(c1c[nH]c2ccccc12)N1CCN(Cc2ccccc2)CC1 |  | 31 µM | 30.1 µM | 47.5 µM | 29 µM | 37.3 µM | > 100 µM | 30.8 µM | 29.7 µM |  |  |  |  |  |  |
| Cc1ccc2nc(-c3ccc(N4C(=O)C(Cl)C4c4ccc(Cl)cc4)cc3)sc2c1 (stereo unspecified) |  | 31.5 µM | 4.02 µM |  | 56.9 µM |  | 60.2 µM | 36.8 µM | 40.9 µM |  |  |  |  |  |  |
| Cc1csc(/N=C\c2c(O)c3ccccc3oc2=O)n1 |  |  | > 100 µM | > 100 µM | > 100 µM |  | > 100 µM | > 100 µM | > 100 µM |  |  |  |  |  |  |
| CCOC(=O)C(NC(=O)c1ccccc1)(N1CCOCC1)C(F)(F)F (stereo unspecified) | > 100 µM | > 100 µM | > 100 µM | > 100 µM | > 100 µM |  | > 100 µM | > 100 µM | > 100 µM |  |  |  |  |  |  |
| COc1cc2cc(C(=O)N3CC(CCl)c4c3cc(N)c3ccccc43)[nH]c2c(OC)c1OC (stereo unspecified) | < 0.01 µM |  | 1.41 µM | < 0.01 µM | 0.0102 µM | < 0.01 µM | < 0.01 µM | < 0.0114 µM |  |  |  |  |  |  |  |
| COc1ccc(C2C3COc4ccccc4C3=NN2c2ccccc2)cc1 (stereo unspecified) |  |  | > 100 µM | > 100 µM | > 100 µM | > 100 µM | > 100 µM | > 100 µM | > 100 µM |  |  |  |  |  |  |
| COC(=O)c1cnc(Cl)cn1 |  | > 100 µM | > 100 µM | > 100 µM | > 100 µM |  | > 100 µM | > 100 µM |  |  |  |  |  |  |  |
| CCCCCCCCCCCCCCCCOC[C@@H](COC(c1ccccc1)(c1ccccc1)c1ccccc1)O[P+](=S)OC (stereo partly specified) |  |  | 35.2 µM | 53.1 µM | 19.1 µM | 26.1 µM | 41.8 µM | 18.9 µM | 5.53 µM |  |  |  |  |  |  |
| C=C1C(=O)O[C@@H]2C=C(C)C3=CC(=O)[C@](C)(C[C@H](OC(=O)/C(C)=C\C)[C@@H]12)O3 | 3.06 µM | 3.03 µM | 2.73 µM | 1.5 µM | 1.54 µM |  | 2.04 µM | 5.01 µM | 1.49 µM |  | 353 nM |  |  |  |  |
| CCOC(=O)/C(C#N)=C/c1ccnc2ccccc12 | > 100 µM | > 100 µM | > 100 µM | > 100 µM | > 100 µM | > 100 µM |  | > 100 µM | > 100 µM |  |  |  |  |  |  |
| CC1C2(C)OC(=N)C(C#N)(C(c3cccc([N+](=O)[O-])c3)O2)C1(C#N)C#N (stereo unspecified) |  | 47.5 µM | 74.6 µM | > 100 µM | 45.2 µM | > 100 µM | > 100 µM | > 100 µM | 32.4 µM |  |  |  |  |  |  |
| CN(/N=C/c1ccnc2ccccc12)c1ccc(Cl)cc1[N+](=O)[O-] | > 100 µM |  | > 100 µM | > 100 µM | > 100 µM | > 100 µM | > 100 µM | > 100 µM | > 100 µM |  |  |  |  |  |  |
| C/C=C/C1OC(O)(C(C)C(O)[C@H](C)C2OC(=O)/C(OC)=C/C(C)=C/[C@@H](C)[C@@H](O)[C@@H](C)C(O)C(C)C/C(C)=C/C=C/C2OC)C[C@@H](OC2CC(O)C(OC(N)=O)C(C)O2)C1C (stereo partly specified) | < 0.01 µM | 3.18 µM | 1.54 µM | < 0.01 µM | 1.42 µM | 3.68 µM |  | 0.625 µM | 1.11 µM |  |  |  |  |  |  |
| CC/C=C(\C(=C/CC)[N+](=O)[O-])[N+](=O)[O-] | 34.4 µM | 37.1 µM | 31.9 µM | 64.9 µM |  |  | 71.3 µM | > 100 µM | 43 µM |  |  |  |  |  |  |
| O=C1Nc2ccc(Cl)cc2/C1=C\c1c(Cl)nc2sccn12 | > 100 µM | > 100 µM |  | 51.9 µM |  | 8.66 µM | > 100 µM | > 100 µM | 8.42 µM |  |  |  |  |  |  |
| FC1C2=C(SC1(F)F)C1CCC2C1 (stereo unspecified) |  |  | > 100 µM | > 100 µM | > 100 µM |  | > 100 µM | > 100 µM |  |  |  |  |  |  |  |
| CCCCCCCCCCC1OC([C@@H](O)CC[C@H](O)C2CC[C@@H](CCCCCCCC(O)CC3=CC(C)OC3=O)O2)CCC1O (stereo partly specified) | > 25 µM | > 25 µM |  | > 13.9 µM | > 25 µM | > 25 µM | > 25 µM | > 25 µM | > 25 µM |  | 2760 nM |  | 2480 nM | 2920 nM | 5.34 µM |
| C[N+]1(CCCl)CC[N+](C)(CCCl)CC1 (stereo unspecified) |  | > 100 µM | > 100 µM | > 100 µM | > 100 µM | > 100 µM | > 100 µM | > 100 µM | > 100 µM |  |  |  |  |  |  |
| NNC(=O)c1nnn(CCc2ccccc2)c1C(=O)NN | > 100 µM | > 100 µM | > 100 µM | > 100 µM | > 100 µM |  | > 100 µM | > 100 µM | > 100 µM |  |  |  |  |  |  |
| N#Cc1c(-c2ccccc2)[nH]c(=O)n(C2OC(CO)C(O)C(O)C2O)c1=O (stereo unspecified) | > 100 µM | > 100 µM | > 100 µM | > 100 µM | > 100 µM | > 100 µM | > 100 µM | > 100 µM |  |  |  |  |  |  |  |
